Like-named read-outs stand apart in the source and are kept apart here.

The test system of test [1] is cultured human keratinocytes. Kind of test: Keratinocyte differentiation in vitro, involucrin protein by Western blot. The test is classed as cell-based. Conditions: 8 μM. The method, then:
(§1) Second-passage keratinocytes isolated from newborn foreskins were cultured in serum-free keratinocyte growth medium (KGM; Clonetics, San Diego, Calif., USA). […] Poly-A mRNA was isolated and transglutaminase I, involucrin and PPAR-beta/delta mRNA levels were measured by Northern blot analysis (FIG. 1).
Total cellular protein was isolated from cultured keratinocytes and involucrin protein levels were assessed by Western blot analysis. The cells were homogenized by sonication, their protein content was determined, and gels were loaded with equal amounts per sample and lane. Western Immunoblotting was performed using 7.5% SDS-PAGE, as described previously (Laemmli, 1970). Following transfer of protein to PVDF membranes, blots were incubated overnight with primary antibody at 4° C. Secondary antibody (peroxidase conjugated anti mouse; Amersham PharmaciaBiotech Inc., Piscataway, N.J.) was applied and blots were incubated at room temperature for 2 hours. Final detection was performed by chemiluminescence (ECL kit; Amersham). Involucrin protein was detected with a monoclonal mouse anti-human involucrin antibody.

For test [2], the system named is epidermal permeability barrier of hairless mice. Description: Permeability barrier recovery (TEWL) after barrier disruption. To be noted: for percent barrier recovery: pretreated 4 mM twice daily for three days. The format is in vivo, mouse. How it is done: Permeability of the epidermal barrier was then experimentally disrupted by the repeated application of cellophane tape, solvent extraction (repeated topical acetone), or by detergent treatment (repeated topical sodium dodecyl sulfate) until the transepidermal water loss (TEWL) reached 6-8 mg/cm^2/h. Recovery of barrier function was determined by measurement of transepidermal water loss (TEWL) with an electrolytic water analyzer (MEECO®, Warrington, Pa.) at 3 and 6 hours after barrier disruption.
Barrier recovery is reported as percent barrier recovery from the initial induced defect.

For test [3], the system named is cultured human keratinocytes. Kind of test: Keratinocyte differentiation in vitro, mRNA levels by Northern blot. The format is cell-based. The method, then:
Therefore, to determine if GW1514 could stimulate keratinocyte differentiation, in vitro changes in the levels involucrin and transglutaminase I mRNA, and involucrin protein expression were determined when cells were cultured in the presence of GW1514. In addition, levels of PPAR-betaldelta mRNA were compared in cells treated with GW1514 versus untreated controls.
as §1
(§2) PolyA RNA was purified using oligo(dT) cellulose (Amersham Pharmacia). RNA was electrophoresed through 1% agarose gels containing 2.2 M formaldehyde, and RNA integrity was visualized by ethidium bromide staining. The RNA was then transferred to a nylon membrane and blots were hybridized overnight at 65° C. with the appropriate ^32P-labeled cDNA probes. Probes were ^32P-labeled by random priming. Washes were performed in 0.1% SSC and 0.1 SDS for 20 minutes at room temperature and at 65° C., respectively. Autoradiography was performed at −70° C. Blots were probed with GAPDH to control for normal loading. Bands of the correct size were quantified by densitometry using QuantityOne software (Bio-Rad Laboratories Inc., Hercules, Calif., USA).

The subject of test [4] is hyperplastic epidermis of hairless mice. Description: Experimentally induced epidermal hyperplasia: filaggrin/loricrin and PCNA staining. The format is in vivo, mouse. To be noted: 4 mM in acetone topically for three days after induction of hyperplasia. How it is done:
The skin of 6-8 week old hairless mice (Simonsen Laboratories, Gilroy, Calif.) was treated twice a day for 3 days with acetone soaked cotton balls until the transepidermal water loss reached 6-8 mg/cm^2/h. […] At the completion of the experimental treatments, the animals were sacrificed and skin samples were taken and fixed with 4% formaldehyde in phosphate-buffered saline (PBS) and embedded in paraffin. Sections (6 μm) were collected on microscope slides and used for immunohistochemistry. Photographs were taken with a Zeiss microscope and digital images were captured and assembled by appropriate software. Fillagrin and loricrin protein expression were detected by immunohistochemistry using antibodies purchased from BabCo (Richmond, Calif.). Proliferating keratinocytes were quantified in sections by staining with biotinylated anti-proliferating cell nuclear antigen (PCNA) antibody (CalTag Laboratories, Burlingame, Calif.).

Test [5] has as its system epidermis of PPARα−/− and PPARα+/+ mice. Description: Topical treatment of PPAR-alpha knockout and wild type mice: filaggrin/loricrin immunohistochemistry. To be noted: 4 mM topical twice a day for 6 days. The test is classed as in vivo, mouse. How it is done: The epidermis of PPARα knockout (PPARα−/−) mice, as well as the epidermis of wild type(PPARα+/+) mice was treated with topical applications of GW1514. Expression of the in vivo differentiation markers loricrin and filaggrin was measured by immunohistochemical staining following treatment.
PPAR-alpha−/−mice in a mixed C57BL/6 and Sv129 background were compared with age matched C57BL/6 and Sv129 wild type controls. […] At the conclusion of the experiment, animals were sacrificed. Skin samples were taken and fixed with 4% formaldehyde in phosphate-buffered saline (PBS) and embedded in paraffin. Sections (6 μm) were collected on microscope slides and used for immunohistochemistry. Photographs were taken with a Zeiss microscope and digital images were captured and assembled by appropriate software. Fillagrin and loricrin protein expression were detected by immunohistochemistry using antibodies purchased from BabCo (Richmond, Calif.).

Test [6] relates to normal epidermis of hairless mice. Kind of test: Topical treatment of normal epidermis: filaggrin/loricrin immunohistochemistry and PCNA staining. The format is in vivo, mouse. The source says: At the conclusion of the experiment the animals were sacrificed. Mouse skin samples were fixed with 4% formaldehyde in phosphate-buffered saline (PBS) and embedded in paraffin. Sections (6 μm) were collected on microscope slides and used for immunohistochemistry. Photographs were taken with a Zeiss microscope and digital images were captured and assembled by appropriate software. Fillagrin and loricrin protein expression were detected by immunohistochemistry using antibodies purchased from BabCo (Richmond, Calif.). Proliferating keratinocytes were quantified in sections by staining with biotinylated anti-proliferating cell nuclear antigen (PCNA) antibody (CalTag Laboratories, Burlingame, Calif.).

The next test relates to ears of CD-1 mice. Description: TPA-induced irritant contact dermatitis, ear thickness. The format is in vivo, mouse. Conditions: for effect on TPA induced increase in ear thickness: GW1514 4 mM in acetone, topical, 45 minutes and 4 hours after TPA, FIG. 9. The method, then: TPA was applied to the inner and outer surface of the left ears of male mice. The right ears were treated with vehicle alone (acetone). […] Ear thickness was measured with a digital caliper (Mitutoyo Corp., Tokyo, Japan).

Test [7] has as its target T1, PPAR-alpha (Homo sapiens, UniProt Q07869).
T1 sequence (Q07869 1-468): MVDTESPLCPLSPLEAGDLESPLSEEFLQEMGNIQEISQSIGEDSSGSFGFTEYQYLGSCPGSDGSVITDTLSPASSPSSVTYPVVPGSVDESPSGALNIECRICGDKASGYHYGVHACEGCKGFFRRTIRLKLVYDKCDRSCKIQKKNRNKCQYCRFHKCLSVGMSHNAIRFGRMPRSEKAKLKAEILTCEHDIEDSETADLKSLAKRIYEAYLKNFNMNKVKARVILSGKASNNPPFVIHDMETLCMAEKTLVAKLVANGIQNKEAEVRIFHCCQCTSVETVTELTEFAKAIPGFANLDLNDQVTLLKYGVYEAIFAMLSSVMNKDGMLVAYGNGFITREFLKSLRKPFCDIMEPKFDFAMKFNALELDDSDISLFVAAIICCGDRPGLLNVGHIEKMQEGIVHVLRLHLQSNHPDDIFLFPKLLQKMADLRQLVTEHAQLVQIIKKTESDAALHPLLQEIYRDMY
Kind of test: PPAR subtype activation (statement in description). Conditions: "it has now been discovered"; no method given.

Test [8] has as its target T1, PPAR-alpha. To be noted: known cross-reactive PPAR agonists; cited from earlier work.
Test [9] deals with cultured human keratinocytes. Kind of test: PPAR-beta/delta mRNA in keratinocytes treated with inflammatory stimuli (Northern blot). The format is cell-based. To be noted: LPS; IL1-beta 50 ng/ml; TNF-alpha 100 ng/ml; UV-B 30 mJ/cm^2. The method, then: Second-passage keratinocytes isolated from newborn foreskins were cultured in serum-free keratinocyte growth medium (KGM; Clonetics, San Diego, Calif., USA). […] Control keratinocytes were treated with vehicle (0.05%) ethanol, or sham irradiated. UV exposure was performed in phosphate buffered saline which was replaced by serum free KGM after irradiation. For cytokine treatment, 0.1% bovine serum albumin was added to the medium.
as §2, with “Quantityone” for “QuantityOne”, “Laboratories,” for “Laboratories”

Where [10] appears, read: 8 μM vs vehicle (0.05% ethanol), Northern blot.
[11] abbreviates: 4 mM in acetone, topical, twice a day for 6 days, vs vehicle.

In the case of `Cc1cc(SCc2oc(-c3ccc(C(F)(F)F)cc3)nc2C)ccc1OCC(=O)O` [GW1514, (2-methyl-4-(((4-methyl-2-(4-trifluoromethylphenyl)-1,3-oxazol-5-yl)methyl)sulfanyl)phenoxy)acetic acid], the “increase in involucrin protein expression” value in test [1] is on record as 5 fold. For the same compound, the “recovery of permeability barrier function” value in test [2] (regardless of the method of barrier perturbation (tape, acetone, detergent)) is “accelerated recovery”. Besides, in test [2] (three hour post tape-strip), the percent barrier recovery is roughly 50%. Further, in test [2] (three hours after repeated topical acetone), the percent barrier recovery entry is listed as “about 30%”. In addition, in [3] (setting [10]), the “PPAR-beta/delta mRNA levels” value was “increased levels”, the “involucrin mRNA levels” value is recorded as “increased levels” and the “transglutaminase I mRNA levels” value is given as “increased levels”. Also, the “induction of differentiation markers compared with high calcium concentrations in culture medium” value in test [3] (8 μM, FIG. 1) is recorded as “more pronounced”. Besides, in test [4], the “expression of differentiation marker filaggrin” value is given as “increase”, the “expression of differentiation marker loricrin” value was “increase” and the “number of proliferating nuclei as measured by PCNA staining” value is listed as “did not produce an increase”. Besides, in test [5] (PPAR-alpha knockout (−/−) mice), the filaggrin immunohistochemical staining result is “increased immunohistochemical staining” and the loricrin immunohistochemical staining result is “increased immunohistochemical staining”. In [5] (wild type (+/+) mice), the filaggrin immunohistochemical staining entry was “increased immunohistochemical staining” and the loricrin immunohistochemical staining entry is recorded as “increased immunohistochemical staining”. In addition, in test [6] (setting [11]), the filaggrin immunohistochemical staining result is listed as “increased levels of immunohistochemical staining” and the loricrin immunohistochemical staining entry was “increased levels of immunohistochemical staining”. Further, in test [6] (after six days treatment), the “cell proliferation (PCNA)” value is given as “at normal levels”. In test [6] (after three days of treatment), the “expression of in vivo differentiation markers” value is “increased expression”. Besides, in [6] (three days after treatment), the “pool of proliferating cells (PCNA)” value is “transiently increased”. The “effect on TPA induced increase in ear thickness” value with ears of CD-1 mice is on record as “reduced the magnitude”. Moreover, the “activation of PPAR-alpha” value on PPAR-alpha [7] is recorded as “not also activators of PPAR-alpha”.

For `CCCCCCCCCCCCCC(=O)O[C@@H]1[C@@H](C)[C@@]2(O)[C@@H](C=C(CO)C[C@]3(O)C(=O)C(C)=C[C@@H]23)[C@@H]2C(C)(C)[C@]12OC(C)=O` [TPA, 12-O-tetradecanoylphorbol-13-acetate], the “increase in ear thickness following TPA treatment” value in the test with ears of CD-1 mice (10 μl of 0.03% TPA in acetone, single topical application) is “approximately 2 fold”. Moreover, the “increase in ear weight following TPA treatment” value in the test on ears of CD-1 mice (10 μl of 0.03% TPA in acetone, single topical application, not shown) is “approximately 2 fold”.

As for `Cc1cccc(Nc2cc(Cl)nc(SCC(=O)O)n2)c1C` [WY 14643], at PPAR-alpha [8], the “activation of PPAR-alpha” value is reported as “activates”.

Turning to `C[C@H]1C[C@H]2[C@@H]3CCC4=CC(=O)C=C[C@]4(C)[C@@]3(F)[C@@H](O)C[C@]2(C)[C@@]1(O)C(=O)CCl` [clobetasol], in the test on ears of CD-1 mice, the “effect on TPA induced increase in ear thickness” value was “anti-inflammatory effect”.

On to “IL1-β: cytokine used as inflammatory stimulus on cultured keratinocytes”, for which the “PPAR-beta/delta mRNA levels relative to untreated control” value in test [9] is listed as “nearly twice”.

Regarding lipopolysaccharide [reference compound], the “PPAR-beta/delta mRNA levels relative to untreated control” value in test [9] is reported as “nearly twice”.

The values above are taken from patent US20030077298A1, “Activators and ligands of PPAR-beta/delta for the treatment of skin conditions” (The Regents of the University of California, a California …, priority 2001, published 2003).
